Experimental data reported in ChEMBL document CHEMBL3217618, “The use of phosphate bioisosteres in medicinal chemistry and chemical biology” (Medchemcomm, 2012).
pIC50, pKd: −log10 of the molar value. Numbered stars: 1 amine (or outer) side, 2 acyl side, 3 side chain; on linkers, the order of the positions; unused ones are H or OH. Square brackets hold non-standard residues; d marks the D form. Peptide text beside a SMILES is read from it. X1 = NS(=O)(=O)Cc1ccc(C[C@H](N[*:1])C(=O)[*:2])cc1

Legend:
[1] = Agonist activity at INSP3R in MFF assessed as calcium influx; parameters: species or system Mus musculus
[2] = target: T1, Tyrosine-protein phosphatase non-receptor type 1 (Homo sapiens) (UniProt P18031); experiment: Inhibition of PTP1B (unknown origin) at 11 uM
T1 sequence (whole entry): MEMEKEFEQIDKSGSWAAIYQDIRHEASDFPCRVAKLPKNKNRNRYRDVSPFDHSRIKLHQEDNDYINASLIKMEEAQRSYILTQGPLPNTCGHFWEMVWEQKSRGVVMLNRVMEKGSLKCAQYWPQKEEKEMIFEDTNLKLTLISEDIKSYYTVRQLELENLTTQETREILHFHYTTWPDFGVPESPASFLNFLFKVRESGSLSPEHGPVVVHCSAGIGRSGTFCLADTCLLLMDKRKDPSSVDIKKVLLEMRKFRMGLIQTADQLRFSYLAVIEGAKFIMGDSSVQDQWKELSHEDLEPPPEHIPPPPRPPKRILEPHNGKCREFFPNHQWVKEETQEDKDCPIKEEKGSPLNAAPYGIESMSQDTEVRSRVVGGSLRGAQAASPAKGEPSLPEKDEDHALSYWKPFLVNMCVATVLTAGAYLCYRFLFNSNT

[3] = Inhibition of Bacillus anthracis PIsY1
[4] = Inhibition of Streptococcus pneumoniae PIsY1
[5] = Inhibition of Yersinia pestis protein tyrosine phosphatase
[6] = target: Growth factor receptor-bound protein 2 (Homo sapiens, UniProt P62993); experiment: Binding affinity to SH2 domain of GRB2 (unknown origin) by surface plasmon resonance assay
Chain of Growth factor receptor-bound protein 2 (P62993 whole entry, the tested form may be a part): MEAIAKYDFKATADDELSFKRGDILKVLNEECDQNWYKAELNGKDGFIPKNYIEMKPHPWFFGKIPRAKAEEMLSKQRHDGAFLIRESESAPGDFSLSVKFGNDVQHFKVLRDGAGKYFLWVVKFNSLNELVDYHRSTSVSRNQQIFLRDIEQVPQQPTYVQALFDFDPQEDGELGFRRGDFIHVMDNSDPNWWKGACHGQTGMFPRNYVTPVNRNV

`COP(=O)(O)O[C@@H]1[C@@H](O)[C@H](OP(=O)(O)O)[C@H](O)[C@H](O)[C@H]1OP(=O)(O)O` showed a pIC50 [1] of 5.01.
`CCCCCNC(=O)[C@H](Cc1ccc(OC(C(=O)O)C(=O)O)cc1)NC(=O)CCC(=O)O` gave an inhibition [2] of 80%.
For `CCCCCCCCCCCCCCCC(=O)C(F)(F)P(=O)(O)O`, the pIC50 [3] was 4.30 and the pIC50 [4] was 4.41.
In the case of `CCCCCCCCCCCCCCCC(=O)CP(=O)(O)O`, the pIC50 [3] was 4.05.
In the case of `CCCCCC/C=C/CCCCCCCCCC(=O)NP(=O)(O)O`, the pIC50 [4] was 4.96.
In the case of `CCCCCCCC/C=C/CCCCCCCC(=O)NS(=O)(=O)NCCC`, the pIC50 [3] was 3.70.
For `CC(=O)N[C@@H](CC(=O)O)C(=O)N[C@@H](C)C(=O)N[C@@H](CC(=O)O)C(=O)N[C@@H](CCC(=O)O)C(=O)N[C@@H](Cc1ccc(CS(N)(=O)=O)cc1)C(=O)N[C@@H](CC(C)C)C(N)=O` (Ac-DADE[X1]L-NH2), the pIC50 [5] was 6.43.
Molecule `Cc1ccc2c(ccn2C[C@@H]2C/C=C\C[C@H](c3ccc(CP(C)(=O)O)cc3)[C@H](CC(=O)O)C(=O)NC3(CCCCC3)C(=O)N[C@@H](CC(N)=O)C(=O)NC2)c1` has a pKd [6] of 7.79.
`CCCCCCCCCCCCCCCC(=O)NS(=O)(=O)Oc1ccc(OC)cc1` gave a pIC50 [3] of 4.46.
